Earlier results, collected in patent US11124883B2, “Method for inhibiting metal corrosion using a benzimidazole-containing composition” (priority 2017, dated 2021).

Conditions: at 20° C., according to DrugBank

c1ccc2[nH]cnc2c1 [unsubstituted benzimidazole, benzimidazole]
water solubility: about 20 g/L
